# From patent US20050260158A1, “Human stem cell materials and methods” (priority 2003, published 2005)
# What was measured:
# Type in all cases: cell-based, human
# [1] = tested on: MDSC cultures; assay: Transmission electron microscopy of treated MDSC cultures; details: treated MDSC cultures in high glucose
# Protocol: Transmission electron microscopy. Untreated or treated MDSC cultures were incubated in high glucose in 8-well Permanox® Slides (Nunc, Naperville, Ill.). Freshly human isolated islets were fixed for 2 h with 2% glutaraldehyde in cacodylate buffer at room temperature and the further sample preparation was done as described in Zhu, X., et al., Proc. Natl. Acad. Sci. (USA), 99:10299-10304 (2002). Fifty randomly selected cells were photographed using the Philips CM-120 transmission electron microscope.
# [2] = tested on: MDSC cultures; assay: Pancreatic islet β-cell-like  differentiation of MDSC cultures, immunostaining for β-cell markers; details: high glucose, absence of serum
# Protocol: Cells. MDSCs cultured in 8-well Lab-Tek chamber slides (Nunc, Naperville, Ill.)) were treated for 3-5 days with 1 mg/ml LPS (Sigma) or […] CD40Ab (R&D System, Minneapolis, Minn.)) in the presence of low (5 mM) or high (25 mM) glucose (Sigma). Human pancreatic islets were digested as described in Ricordi, C., et al., Diabetes 38 Suppl 1, 140-142 (1989) and purified on COBE 2991 (Mediatech, Herndon, Va.) using a continuous Ficoll gradient. Immunostaining. Tissue slides (Biochain, Hayward, Calif.) were immunostained after deparaffinization with AutoDewaxer (Phoenix Biotechnologies, Huntsville, Ala.). The secondary antibodies were peroxidase-, FITC-, or Texas Red® dye-conjugated affiniPure anti-mouse, donkey, goat or Guinea pig antibodies (Jackson ImmunoResearch Laboratories, West Grove, Pa.). […] Isotype-matched antibodies served as controls. Human macrophages served as positive controls. […] Immunostaining for the different antigens and insulin immuno-quantification was done as previously described (Zhao, Y., et al., Proc. Natl. Acad. Sci. USA, 100: 2426-2431 (2003). Non-specific esterase staining was performed using a-Naphthyl Acetate Esterase kit (Sigma).
# [3] = tested on: MDSC cultures; assay: Insulin release from MDSC cultures (insulin ELISA); details: MDSC cultures treated 4-5 days
# Protocol: Insulin release. MDSC cultures incubated in 24-well tissue culture plates (Costar, Cambridge, Mass.) at 70-80% confluence were treated for 4-5 days with LPS or CD40Ab. Insulin secretion was assessed as previously described in Schuit, F., et al., J. Biol. Chem. 272:18572-18579 (1997), using an insulin ELISA kit (Linco Research, MO). When required, the untreated or treated cultures were also pre-incubated for 30 min with […] diazoxide, 10 mM tolbudamide, or […] IBMX.
# [4] = tested on: insulin gene; assay: Nested RT-PCR for insulin in MDSC cultures; details: treated MDSC cultures; markedly increased in high glucose
# Protocol: Nested RT-PCR. Nested RT-PCR was performed using the QIAGEN® OneStep RT-PCR kit (Qiagen, Valencia, Calif.), with the following: insulin forward-[…] (SEQ ID NO: 1) (PCR product size 324 bp), insulin forward nested-[…] (SEQ ID NO: 2) (PCR product size 266 bp), insulin reverse-[…] (SEQ ID NO: 3), glyceraldehyde phosphate dehydrogenase (GAPDH) forward-[…] (SEQ ID NO: 4) (PCR product size 541 bp), GAPDH forward nested-[…] (SEQ ID NO: 5) (PCR poduct size 282 bp), GAPDH reverse-[…] (SEQ ID NO: 6). Both PCR rounds were done using 40 cycles consisting of 30 seconds at 94° C., 1 minute at 58° C., and 1 minute at 72° C. First round PCR products were diluted 1:100 prior to the nested PCR. Final PCR products were electrophoresed through 1.7% agarose with ethidiumbromide and visualized by UV.
# [5] = tested on: MDSC cultures; assay: LPS-induced macrophage differentiation of MDSC cultures; details: 1 μg/ml LPS; 12-14-day-old M-CSF-treated cultures with 80-90% MDSCs
# Text: This transformation was verified by characterization of morphology, lipid staining, increased HLA-DR, HLA-DQ, IL-10 and TNF-α immunostaining (FIG. 3), and cytotoxicity (Table 1).
substance,measurement,setting,value
lipopolysaccharide [LPS],granules seen by transmission electron microscopy,[1],many halo granules of different sizes
same,insulin level by quantitative immunostaining,[2],about half the level of islet beta-cells
same,insulin release by ELISA,[3],glucose-dependent insulin release
same,insulin gene expression,[4],express the insulin gene
same,macrophage differentiation of MDSCs,[5],transformed the MDSCs into standard macrophages
